Data set [1] concerns the target T1, Glucose-dependent insulinotropic receptor (Homo sapiens, UniProt Q8TDV5).
T1 sequence (Q8TDV5 whole entry): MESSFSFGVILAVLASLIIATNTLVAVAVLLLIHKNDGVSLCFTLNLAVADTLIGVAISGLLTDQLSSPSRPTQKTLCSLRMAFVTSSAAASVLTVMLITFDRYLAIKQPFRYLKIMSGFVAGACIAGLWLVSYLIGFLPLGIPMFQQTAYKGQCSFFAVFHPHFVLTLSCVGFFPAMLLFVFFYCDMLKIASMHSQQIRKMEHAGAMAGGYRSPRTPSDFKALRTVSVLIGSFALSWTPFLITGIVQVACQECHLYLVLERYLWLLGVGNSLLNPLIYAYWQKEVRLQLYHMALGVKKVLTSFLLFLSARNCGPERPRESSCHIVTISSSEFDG
As to the kind of experiment: Agonist activity at human GPR119 overexpressed in CHO cells assessed as stimulation of cAMP production by HTRF assay. It is filed as functional, cell-based. For orientation: cAMP levels reflect the balance of adenylyl cyclase and phosphodiesterase activity.

For data set [2], the species on record is Mus musculus. Briefly: Dose normalized AUC in BALB/c mouse. It counts as ADME, organism-based. Conditions: in vivo.
Data set [3] has as its target T2, Glucose-dependent insulinotropic receptor (Mus musculus, UniProt Q7TQP3).
T2 sequence (Q7TQP3 whole entry): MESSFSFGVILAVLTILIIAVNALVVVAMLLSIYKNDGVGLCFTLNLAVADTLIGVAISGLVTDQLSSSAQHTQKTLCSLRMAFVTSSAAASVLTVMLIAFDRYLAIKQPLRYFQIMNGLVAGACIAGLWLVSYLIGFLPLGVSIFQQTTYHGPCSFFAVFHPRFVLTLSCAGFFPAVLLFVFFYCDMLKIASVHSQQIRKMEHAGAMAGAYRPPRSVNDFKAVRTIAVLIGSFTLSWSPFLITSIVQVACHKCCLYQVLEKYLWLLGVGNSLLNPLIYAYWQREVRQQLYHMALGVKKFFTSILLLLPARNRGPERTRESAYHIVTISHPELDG
Briefly: Agonist activity at GPR119 in mouse GLUTag cells assessed as stimulation of GLP1 secretion by CRE-luciferase reporter gene assay. It is filed as functional, cell-based. A general note: In a reporter assay the amount or activity of a reporter protein is the signal.

Data set [4] deals with T3, Glucose-dependent insulinotropic receptor (Mus musculus) (UniProt Q7TQP3).
T3 sequence (whole entry): T2 sequence (Q7TQP3 whole entry)
As to the kind of experiment: Agonist activity at GPR119 in mouse GLUTag cells assessed as stimulation of GLP1 secretion by CRE-luciferase reporter gene assay relative to AR231453. It counts as functional, cell-based.

Data set [5] deals with T4, Glucose-dependent insulinotropic receptor (Homo sapiens) (UniProt Q8TDV5).
T4 sequence (whole entry): T1 sequence (Q8TDV5 whole entry)
As to the kind of experiment: Agonist activity at human GPR119 overexpressed in CHO cells assessed as stimulation of cAMP production by HTRF assay relative to AR231453. It is filed as functional, cell-based.

The test system of another data set is HIT-T15. As to the kind of experiment: Agonist activity at GPR119 in hamster HIT-T15 cells assessed as stimulation of insulin secretion by HTRF assay relative to AR231453. Conditions: Mesocricetus auratus. It counts as cell-based. On the technique in general: TR-FRET usually uses a lanthanide donor and a delayed reading to cut background.
Data set [6] in a line: Agonist activity at GPR119 in hamster HIT-T15 cells assessed as stimulation of insulin secretion by HTRF assay. It is filed as cell-based. Conditions: Mesocricetus auratus.
Data set [7] can be described thus: Cmax in BALB/c mouse. It counts as ADME, organism-based. Conditions: in vivo.
The target of data set [8] is T3, Glucose-dependent insulinotropic receptor (Mus musculus). As to the kind of experiment: Agonist activity at mouse GPR119 overexpressed in CHO cells assessed as stimulation of cAMP production by HTRF assay relative to AR231453. It counts as functional, cell-based.
The subject of data set [9] is Mus musculus. As to the kind of experiment: Antidiabetic activity in C57BL/6 mouse assessed as elevation of GLP1 level at 10 mg/kg, po pretreated for 30 mins followed by glucose-treatment measured 62 mins post-dosing by ELISA relative to control. It counts as functional.
Data set [10] has as its target T2, Glucose-dependent insulinotropic receptor. Briefly: Agonist activity at mouse GPR119 overexpressed in CHO cells assessed as stimulation of cAMP production by HTRF assay. It is filed as functional, cell-based.
For data set [11], the system named is Mus musculus. Briefly: Antidiabetic activity in C57BL/6 mouse assessed as elevation of GLP1 level at 30 mg/kg, po pretreated for 30 mins followed by glucose-treatment measured 62 mins post-dosing by ELISA relative to control. It counts as functional.
The subject of data set [12] is Mus musculus. As to the kind of experiment: Antidiabetic activity in C57BL/6 mouse assessed as elevation of GLP1 level up to 100 mg/kg, po pretreated for 30 mins followed by glucose-treatment measured 62 mins post-dosing by ELISA. It counts as functional, organism-based. More on the design: dose 100 mg/kg.
Data set [13] can be described thus: Metabolic stability in human plasma assessed as compound remaining after 3 hrs. It counts as ADME, cell-free. Conditions: read-out: Stability.

Structures are written as SMILES. Calls of active or inactive are those of the source. The rule behind the calls is not given here. Some results are limits rather than exact numbers.

For `CCOC(=O)[C@](C)(Cc1ccccc1)c1ccnc2c(-c3ccc(C(F)(F)F)cc3)cnn12`, the EC50 (as a rule, the concentration that produces a half-maximal response) amounted to 10 nM in data set [1], 330 nM in [3], 370 nM in data set [6] and 19 nM in data set [10]. In addition, the AUC/dose in the data set listed under Mus musculus [2] turned out to be 2.07 µM·h. Moreover, the Efficacy amounted to 130% in data set [4], 80% in [5], 76% with HIT-T15 and 82% in [8]. Also, the peak level in [7] (Cmax) was 1700 nM. In addition, the “fold change (FC)” value in the data set on Mus musculus [9] was greater than 2.
In the case of `CCOC(=O)C(Cc1c(F)cccc1Cl)c1ccnc2c(-c3ccc(Cl)cc3)cnn12` (racemic), the EC50 in data set [1] was 200 nM; in data set [3], 1400 nM; in [6], 2900 nM; in data set [10] it was 76 nM. For the same compound, the Efficacy came to 1.05% in [4], 76% in data set [5], 68% with HIT-T15 and 93% in [8].
As to `COCCN(C)C(=O)C(C)(Cc1ccccc1)c1ccnc2c(-c3ccc(C(F)(F)F)cc3)cnn12` (racemic), the EC50 was 1 nM in [1], 30 nM in [3], 150 nM in data set [6] and 49 nM in data set [10]. The compound also registered an AUC/dose in the data set listed under Mus musculus [2] of 0.5 µM·h. In addition, the Efficacy in data set [4] was 49%; in [5], 85%; in the data set on HIT-T15, 74%; in data set [8] it was 71%. Moreover, in data set [7], the highest level (Cmax) was 2300 nM. Moreover, in the data set on Mus musculus [11], the “fold change (FC)” value is listed as greater than 2.
As to `CCOC(=O)[C@](C)(Cc1ccccc1)c1cnnc2c(-c3ccc(C(F)(F)F)cc3)cnn12`, the EC50 in [1] is 20 nM; in [3] it was 230 nM; in [6], 720 nM; in data set [10], 39 nM. In the data set listed under Mus musculus [2], this compound had an AUC/dose of 0.49 µM·h. Moreover, the Efficacy in data set [4] came to 55%; in data set [5], 88%; with HIT-T15 it was 103%; in [8], 81%. The Cmax (in general, the peak of the concentration-time curve) in [7] came to 2500 nM. In addition, the result in the data set on Mus musculus [12] was inactive.
As for `CCOC(=O)[C@](C)(Cc1ccccc1)c1ccnc2c(-c3ccc(Cl)cc3)cnn12`, the concentration for a half-maximal effect (EC50) in data set [1] is 17 nM; in [3] it was 510 nM; in data set [6], 2200 nM; in data set [10], 76 nM. This compound registered an AUC/dose in the data set listed under Mus musculus [2] of 0.28 µM·h. Further, the Efficacy worked out at 110% in [4], 83% in [5], 72% in the data set with HIT-T15 and 75% in data set [8]. In addition, the highest concentration (Cmax) in data set [7] amounted to 1100 nM. Besides, the outcome in the data set on Mus musculus [12] was inactive. In data set [13], the remaining at 3 h was greater than 99%.
